Data from US20250333745A1, “METHODS AND COMPOSITIONS FOR TREATMENT OF POLYCYSTIC KIDNEY DISEASE” (Regulus Therapeutics Inc., priority 2016, published 2025).

Legend:
[1] = In vivo study of research tool compound (proinflammatory effect)
Procedure: Further, the research tool compound was not sufficiently efficacious for development as a pharmaceutical agent for the treatment of PKD. Accordingly, a screen was performed to identify inhibitors of one or more miR-17 family members that are sufficiently efficacious, convenient to administer, and safe for administration to subjects with PKD. An additional criterion was a sufficiently high kidney-to-liver delivery ratio, to enhance the proportion of anti-miR-17 compound that is delivered to the target organ.

Pcy mice = experiment: Previous study of tool anti-miR-17 in Pcy mice; assay type: in vivo, mouse; details: 50 mg/kg once weekly for 26 weeks
Procedure: Previous studies using a research tool anti-miR-17 compound identified a role for miR-17 in PKD in two different models of PKD, the Pkd2-KO model (also known as the Pkhd1/cre; Pkd2^F/F model) and the Pcy model. The research tool modified oligonucleotide complementary to miR-17 was tested in mouse models of PKD. The anti-miR-17 compound was a fully phosphorothioated oligonucleotide 19 linked nucleosides in length (5′-CTGCACTGTAAGCACTTTG-3′; SEQ ID NO: 7), with DNA, 2′-MOE and S-cEt sugar moieties.
Pcy mice bearing a mutation in Nphp3 spontaneously develop polycystic kidney disease, with a slower progression of disease than that observed in the Pkd2-KO mice. Mice were treated with 50 mg/kg of tool anti-miR-17 compound, or with PBS, once weekly for a total of 26 weeks. The mean ratio of kidney weight to body weight in the Pcy mice treated with anti-miR-17 was 19% lower than the mean ratio of kidney weight to body weight in the Pcy mice administered PBS only (p=0.0003).

IFIT = experiment: In vivo acute assay in Sv129 mice; design: species or system mouse; details: single s.c. 300 mg/kg, four days, relative to PBS
Procedure: Additional in vivo toxicology assessments were performed by administering to normal mice (Sv129 mice) a single subcutaneous injection of 300 mg/kg of anti-miR-17 compound. After four days, mice were sacrificed, blood was collected for serum chemistry analysis, liver and spleen were weighed, and RNA was isolated from kidney and liver tissues. The expression level of a pro-inflammatory gene, interferon-induced protein with tetratricopeptide repeats (IFIT), was measured.
An in vivo assay was performed in normal, Sv129 mice. A single, subcutaneous dose of 300 mg/kg of RG4326 was administered. Included as control treatments were PBS, and two anti-miRs not related to miR-17, one known to be pro-inflammatory (positive control) and one that is not pro-inflammatory (negative control). Four days later, mice were sacrificed. Kidney and liver tissue was isolated for RNA extraction. The level of a gene known to be induced during an inflammatory response, IFIT, was measured and normalized to mouse GAPDH. A log 2 transformation of the fold change (Log2-FC) relative to PBS treatment was performed.

miR-106b = miR-106b luciferase reporter assay in HeLa cells; assay type: cell-based; details: anti-miR-17 at 100 nm
Procedure: Additional in vitro assays were conducted to further explore the potency of RG4326. A luciferase reporter assay was used to test the ability of RG4326 to inhibit the miR-17 family members miR-17, miR-20a, miR-93, and miR-106b. A luciferase reporter plasmid for each of miR-20a, miR-93, and miR-106b was constructed, with a fully complementary microRNA binding site in the 3′-UTR of the luciferase gene. HeLa cells were transfected with the microRNA mimic and its cognate luciferase reporter, followed by transfection with anti-miR-17 at a dose of 100 nm. […] As RG4326 is 100% complementary to the other miR-17 family members not tested, miR-20b and […], it is expected to inhibit these microRNAs as well.

IFIT3 expression = experiment: Ex vivo liver slice assay; assay type: cell-based; details: rat liver slice; 24-hour incubation; relative to PBS
Procedure: In in vitro assays, the potential for toxicity was assessed using a biochemical fluorescent binding assay (FBA) and a liver or kidney slice assay. The FBA is performed by incubating a fluorescent dye with each compound, and immediately measuring fluorescence. Highly fluorescent compounds have the potential to produce toxicity in vivo. The liver or kidney slice assay is performed by incubating a slice of tissue from a core liver sample isolated from rat. Following a 24-hour incubation, RNA is extracted from the tissue slice, and the expression levels of 18 pro-inflammatory genes are measured. An induction in pro-inflammatory gene expression indicates a potential for pro-inflammatory effects in vivo.
Ex vivo assays were performed with liver or kidney tissue slices. The liver or kidney slice assay is performed by incubating a slice of tissue from a core liver or kidney sample isolated from rat. Following a 24-hour incubation, RNA is extracted from the tissue slice, and the expression levels of 18 pro-inflammatory genes, including IFIT, are measured. A log 2 transformation of the fold change (Log2-FC) relative to PBS treatment was performed. An induction in pro-inflammatory gene expression indicates a potential for pro-inflammatory effects in vivo.

[2] = In vitro metabolic stability in human liver lysate; assay type: in vitro ADME; details: 24-hour incubation of RG4326
Procedure: (§1) Due to their reduced capacity for serum protein binding, which is a property that drives oligonucleotide distribution in the body, short oligonucleotides are not necessarily expected to have pharmacokinetic properties that make them suitable for use as drugs. RG4326 was incubated in mouse, monkey or human liver homogenate. The identity and concentration of RG4326 and metabolites was determined after a 24-hour incubation. RG4326 and metabolites were extracted using liquid-liquid extraction (LLE) and/or solid-phase extraction (SPE), which were then analyzed for identity and concentration using ion-pairing-reversed-phase high performance liquid chromatography coupled with time-of-flight mass spectrometry (IP—RP-HPLC-TOF).

[3] = In vitro metabolic stability in monkey liver lysate; assay type: in vitro ADME; details: 24-hour incubation of RG4326
Procedure: as §1

Molecule | proinflammatory effect (in words) [1] | mean ratio of kidney weight to body weight lower than PBS only (Pcy mice; p=0.0003) | mean reduction in cyst index compared to PBS only (Pcy mice; p=0.008) | In Vivo Acute Assay Kidney IFIT expression (Log2-FC) (IFIT) | In Vivo Acute Assay Liver IFIT expression (Log2-FC) (IFIT) | Mean luciferase fold derepression, miR-106b (miR-106b) | Ex Vivo Liver Slices Assay IFIT3 expression (Log2-FC) (IFIT3 expression) | Ex Vivo Liver Lysate (% Analyte), Human [2] | Ex Vivo Liver Lysate (% Analyte), Monkey [3]
5′-CTGCACTGTAAGCACTTTG-3′ (all phosphorothioate, sugars by position and methylation of C not given here; DNA, 2'-MOE and S-cEt sugars) [Tool anti-miR-17, reference compound] | slightly proinflammatory | 19% | 28% | – | – | – | – | – | –
COC1C(OP(=O)(S)OC[C@H]2O[C@@H](n3cnc4c(N)ncnc43)C(F)C2OP(=O)(S)OC[C@H]2O[C@@H](n3ccc(N)nc3=O)C(F)C2OP(=O)(S)OC[C@H]2O[C@@H](n3ccc(=O)[nH]c3=O)C(F)C2OP(=O)(S)OC[C@H]2O[C@@H](n3ccc(=O)[nH]c3=O)C(OC)C2OP(=O)(S)OC[C@]23O[C@@H](n4ccc(=O)[nH]c4=O)C(O[C@H]2C)C3OP(=O)(S)OC[C@]23O[C@@H](n4cnc5c(=O)[nH]c(N)nc54)C(O[C@H]2C)C3O)[C@@H](COP(=O)(S)OC2C3O[C@@H](C)[C@]2(COP(=O)(S)OC2C4O[C@@H](C)[C@]2(CO)O[C@H]4n2cnc4c(N)ncnc42)O[C@H]3n2cnc3c(=O)[nH]c(N)nc32)O[C@H]1n1ccc(N)nc1=O (stereo in doubt) [RG4326, ASGSCMAFCFUFUMUSGS] | – | – | – | 0.34 (n = 1) Log2-FC | 0.21 ± 0.08 Log2-FC | 17.7 | 1.11 ± 0.32 Log2-FC | 98.7% | 95.9%
